Test results published in the supplement of paper PMC10307832.

Legend:
Experiment in all cases: relative viability (nuclei count vs DMSO), 5 days (fraction); higher = more cells survive
DM3189 + OSI-027 = compound: C1CN(CCN1)C2=CC=C(C=C2)C3=CN4C(=C(C=N4)C5=CC=NC6=CC=CC=C56)N=C3 [DM3189] + COc1cccc2cc(-c3nc([C@H]4CC[C@H](C(=O)O)CC4)n4ncnc(N)c34)[nH]c12 [OSI-027] (partner 0.5 µM)
How it was run: (§1)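 Lung cancer cell lines were seeded in 1536-well plates and dosed by pin tool the next day, with either a single drug or a fixed anchor-drug dose combined with five library-drug doses (not always all listed) spaced in √10 steps. Five days later, one step fixed the cells and stained their nuclei (final 0.05% Triton X-100, 1% formaldehyde, 1 ug/ml Hoechst), and nuclei were counted on 4× images. Relative viability is the nuclei count in treated wells divided by the count in vehicle wells, and each value is the median of duplicate plates.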

DM3189 + Trametinib = compound: C1CN(CCN1)C2=CC=C(C=C2)C3=CN4C(=C(C=N4)C5=CC=NC6=CC=CC=C56)N=C3 [DM3189] + CC(=O)Nc1cccc(-n2c(=O)n(C3CC3)c(=O)c3c(Nc4ccc(I)cc4F)n(C)c(=O)c(C)c32)c1 [Trametinib] (partner 0.02 µM)
How it was run: as §1

DM3189 + Vorinostat = compound: C1CN(CCN1)C2=CC=C(C=C2)C3=CN4C(=C(C=N4)C5=CC=NC6=CC=CC=C56)N=C3 [DM3189] + O=C(CCCCCCC(=O)Nc1ccccc1)NO [Vorinostat] (partner 1 µM)
How it was run: as §1

DM3189 + AZD7762 = compound: C1CN(CCN1)C2=CC=C(C=C2)C3=CN4C(=C(C=N4)C5=CC=NC6=CC=CC=C56)N=C3 [DM3189] + NC(=O)Nc1cc(-c2cccc(F)c2)sc1C(=O)N[C@H]1CCCNC1 [AZD7762] (partner 0.2 µM)
How it was run: as §1

DM3189 + Luminespib = compound: C1CN(CCN1)C2=CC=C(C=C2)C3=CN4C(=C(C=N4)C5=CC=NC6=CC=CC=C56)N=C3 [DM3189] + CCNC(=O)c1noc(-c2cc(C(C)C)c(O)cc2O)c1-c1ccc(CN2CCOCC2)cc1 [Luminespib] (partner 0.01 µM)
How it was run: as §1

Row | Cell Line | relative viability (DM3189 + OSI-027; first compound 0.08 µM) | relative viability (DM3189 + OSI-027; first compound 0.253 µM) | relative viability (DM3189 + OSI-027; first compound 2.53 µM) | relative viability (DM3189 + Trametinib; first compound 0.08 µM) | relative viability (DM3189 + Trametinib; first compound 0.253 µM) | relative viability (DM3189 + Trametinib; first compound 0.8 µM) | relative viability (DM3189 + Trametinib; first compound 2.53 µM) | relative viability (DM3189 + Vorinostat; first compound 0.08 µM) | relative viability (DM3189 + Vorinostat; first compound 0.253 µM) | relative viability (DM3189 + Vorinostat; first compound 0.8 µM) | relative viability (DM3189 + Vorinostat; first compound 2.53 µM) | relative viability (DM3189 + AZD7762; first compound 0.08 µM) | relative viability (DM3189 + AZD7762; first compound 0.253 µM) | relative viability (DM3189 + AZD7762; first compound 0.8 µM) | relative viability (DM3189 + AZD7762; first compound 2.53 µM) | relative viability (DM3189 + OSI-027; first compound 0.8 µM) | relative viability (DM3189 + Luminespib; first compound 0.08 µM) | relative viability (DM3189 + Luminespib; first compound 0.253 µM) | relative viability (DM3189 + Luminespib; first compound 0.8 µM) | relative viability (DM3189 + Luminespib; first compound 2.53 µM)
1 | HCC-366 | 0.888 | 0.856 | 0.808 | 0.414 | 0.362 | 0.352 | 0.432 | 0.363 | 0.285 | 0.191 | 0.41 | 0.293 | 0.267 | 0.197 | 0.241 | – | – | – | – | –
2 | HCC-827 | 0.886 | 0.812 | 0.822 | 0.492 | 0.535 | 0.502 | 0.54 | 1.04 | 0.821 | 0.876 | 0.681 | 0.207 | 0.194 | 0.205 | 0.195 | 0.842 | 0.589 | 0.515 | 0.608 | 0.583
3 | HOP-62 | 1.02 | 0.852 | 0.871 | 0.421 | 0.509 | 0.475 | 0.51 | 0.566 | 0.702 | 0.573 | 0.66 | 0.672 | 0.646 | 0.621 | 0.596 | 0.817 | 0.981 | 0.905 | 0.774 | 1.01
4 | IA-LM | – | – | – | – | – | – | – | 0.962 | 1.11 | 1.1 | 1.04 | – | – | – | – | – | – | – | – | –
5 | LC-2-ad | 0.801 | 0.784 | 0.87 | 0.938 | 0.901 | 0.875 | 0.919 | 0.744 | 0.7 | 0.663 | 0.723 | 0.927 | 0.872 | 0.872 | 0.8 | 0.726 | 0.827 | 0.926 | 0.891 | 0.979
6 | LCLC-97TM1 | 0.563 | 0.304 | 0.396 | 0.211 | 0.198 | 0.205 | 0.216 | 0.73 | 0.647 | 0.687 | 0.751 | 0.275 | 0.177 | 0.207 | 0.171 | 0.397 | 0.71 | 0.574 | 0.699 | 0.606
7 | LCLC-103H | 0.513 | 0.435 | 0.41 | 0.748 | 0.653 | 0.685 | 0.681 | 0.816 | 0.8 | 0.734 | 0.744 | 0.909 | 0.817 | 0.764 | 0.818 | 0.442 | 0.974 | 0.985 | 0.933 | 0.999
8 | NCI-H520 | 0.281 | 0.232 | 0.232 | 0.672 | 0.413 | 0.43 | 0.321 | 0.712 | 0.633 | 0.57 | 0.292 | – | – | – | – | 0.237 | 0.238 | 0.228 | 0.214 | 0.214
9 | NCI-H661 | 0.772 | 0.669 | 0.584 | 0.7 | 0.581 | 0.642 | 0.623 | 0.826 | 0.796 | 0.809 | 0.883 | – | – | – | – | 0.709 | 1.07 | 0.922 | 0.959 | 0.78
10 | NCI-H1563 | 0.876 | 0.673 | 0.785 | – | – | – | – | – | – | – | – | – | – | – | – | 0.749 | 0.568 | 0.487 | 0.481 | 0.539
11 | NCI-H1650 | 0.715 | 0.658 | 0.524 | 0.749 | 0.608 | 0.677 | 0.738 | 0.505 | 0.539 | 0.638 | 0.644 | – | – | – | – | 0.468 | 0.183 | 0.183 | 0.188 | 0.197
12 | NCI-H1703 | – | – | – | – | – | – | – | – | – | – | – | 0.122 | 0.191 | 0.119 | 0.135 | – | – | – | – | –
13 | NCI-H1792 | 0.585 | 0.703 | 0.839 | 0.538 | 0.482 | 0.438 | 0.62 | – | – | – | – | 0.796 | 0.65 | 0.593 | 0.616 | 0.661 | 0.416 | 0.552 | 0.445 | 0.328
14 | NCI-H2009 | 0.684 | 0.577 | 0.579 | 0.276 | 0.268 | 0.263 | 0.23 | 0.705 | 0.647 | 0.733 | 0.888 | – | – | – | – | 0.553 | 1.06 | 1.01 | 0.932 | 1.06
15 | NCI-H2023 | 0.428 | 0.388 | 0.398 | 0.469 | 0.534 | 0.532 | 0.374 | 0.688 | 0.618 | 0.603 | 0.604 | – | – | – | – | 0.295 | 0.811 | 0.863 | 1.09 | 0.663
16 | NCI-H2228 | 0.73 | 0.517 | 0.322 | 0.476 | 0.494 | 0.581 | 0.236 | 0.541 | 0.773 | 0.593 | 0.279 | – | – | – | – | 0.434 | 0.112 | 0.132 | 0.144 | 0.167
17 | SK-LU-1 | 0.373 | 0.283 | 0.284 | 0.441 | 0.402 | 0.429 | 0.378 | 0.742 | 0.749 | 0.728 | 0.598 | – | – | – | – | 0.299 | 0.181 | 0.194 | 0.176 | 0.196
18 | SK-MES-1 | 0.602 | 0.53 | 0.481 | 0.54 | 0.485 | 0.481 | 0.548 | 1.34 | 1.01 | 0.787 | 0.875 | – | – | – | – | 0.523 | 0.848 | 0.82 | 0.611 | 0.412
19 | SW 1573 | 0.569 | 0.618 | 0.523 | 0.677 | 0.6 | 0.53 | 0.539 | 0.786 | 0.761 | 0.633 | 0.337 | – | – | – | – | 0.488 | 0.261 | 0.232 | 0.192 | 0.33
20 | UMC-11 | 0.531 | 0.461 | 0.51 | 0.745 | 0.706 | 0.59 | 0.62 | 0.356 | 0.349 | 0.358 | 0.281 | – | – | – | – | 0.395 | 1.01 | 0.986 | 0.882 | 0.685
